Measured values published in US20260217711A1, “TRIAZOLOPYRIDINYL ETHER LINKED COMPOUNDS AS KINASE INHIBITORS” (Bristol-Myers Squibb Company, priority 2023, published 2026).

test system: MLKL phosphorylation (pMLKL) in HT29-L23 cells; assay: MLKL Phosphorylation High-Content Assay; assay type: cell-based; details: Homo sapiens, 6 h, necroptosis induced with human TNFα, SMAC mimetic and Z-VAD, read-out: LE pMLKL HC IC50
Experimental: Following 6 h incubation at 37° C. […] MLKL phosphorylation was detected using anti-MLKL (phospho […]) antibody (Abcam #ab187091) (1:1000 dilution in Blocking Buffer [PBS supplemented with 0.1% BSA]) with ON incubation at 4° C. […] Following another three cycles of washes in PBS, the microplates were sealed, and cellular images were acquired in the Cellomics ArrayScan VTI high-content imager equipped with an X1 camera. […] The image sets were analyzed using the Compartmental Analysis Bioapplication software (Cellomics). The level of MLKL phosphorylation was quantified as […].

| SMILES | IC50 [nM] |
| --- | --- |
| Nc1nc2cc(-c3cccc(OCCC(F)(F)Cc4ccccc4)c3F)ccn2n1 [Example 74, 7-(3-(3,3-difluoro-4-phenylbutoxy)-2-fluorophenyl)-[1,2,4]triazolo[1,5-a]pyridin-2-amine] | 5 |

same assay, conditions: necroptosis induced with human TNFα, SMAC mimetic and Z-VAD, 6 h, read-out: LE pMLKL HC IC50

| SMILES | IC50 [nM] |
| --- | --- |
| Nc1nc2cc(-c3cccc(OCCC(F)(F)C(N)c4ccc(F)cc4)c3F)ccn2n1 (single isomer, unassigned) [Example 62, 7-(3-(4-amino-3,3-difluoro-4-(4-fluorophenyl)butoxy)-2-fluorophenyl)-[1,2,4]triazolo[1,5-a]pyridin-2-amine] | 6 |
| CC(O)(c1ccc(F)cc1)C(F)(F)CCOc1c(F)ccc(-c2ccc3nc(N)nn3c2)c1F (single isomer, unassigned) [Example 76, 5-(3-(2-amino-[1,2,4]triazolo[1,5-a]pyridin-6-yl)-2,6-difluorophenoxy)-3,3-difluoro-2-(4-fluorophenyl)pentan-2-ol] | 2 |
| Cc1ccc(-c2ccn3nc(N)nc3c2)c(F)c1OCCC(F)C(C)(O)c1ccc(F)cc1 (single isomer, unassigned) [Example 115, 5-(3-(2-amino-[1,2,4]triazolo[1,5-a]pyridin-7-yl)-2-fluoro-6-methylphenoxy)-3-fluoro-2-(4-fluorophenyl)pentan-2-ol] | 2.6 |
| CC(O)(c1ccc(F)cc1)C(F)(F)CCOc1cc(F)cc(-c2ccn3nc(N)nc3c2)c1F (single isomer, unassigned) [Example 10, 5-(3-(2-amino-[1,2,4]triazolo[1,5-a]pyridin-7-yl)-2,5-difluorophenoxy)-3,3-difluoro-2-(4-fluorophenyl)pentan-2-ol] | 1 |
| Nc1nc2cc(-c3ccc(F)c(OCCC(F)C(O)c4ccc(F)cc4)c3F)ccn2n1 (single isomer, unassigned) [Example 104, 4-(3-(2-amino-[1,2,4]triazolo-[1,5-a]pyridin-7-yl)-2,6-difluorophenoxy)-2-fluoro-1-(4-fluorophenyl)butan-1-ol] | 2.8 |
| COc1ccc(-c2ccn3nc(N)nc3c2)c(F)c1OCCC(F)(F)C(C)(O)c1ccc(F)cc1 (single isomer, unassigned) [Example 18, 5-(3-(2-amino-[1,2,4]triazolo[1,5-a]pyridin-7-yl)-2-fluoro-6-methoxyphenoxy)-3,3-difluoro-2-(4-fluorophenyl)pentan-2-ol] | 80 |
| Nc1nc2cc(-c3ccc(Cl)c(OCCC(F)C(O)c4ccc(F)cc4)c3F)ccn2n1 (single isomer, unassigned) [Example 100, 4-(3-(2-amino-[1,2,4]triazolo[1,5-a]pyridin-7-yl)-6-chloro-2-fluorophenoxy)-2-fluoro-1-(4-fluorophenyl)butan-1-ol] | 6 |
| COc1cc(F)c(OCCC(F)(F)C(C)(O)c2ccc(F)cc2)c(F)c1-c1ccn2nc(N)nc2c1 (single isomer, unassigned) [Example 21, 5-(3-(2-amino-[1,2,4]triazolo[1,5-a]pyridin-7-yl)-2,6-difluoro-4-methoxyphenoxy)-3,3-difluoro-2-(4-fluorophenyl)pentan-2-ol] | 1.1 |
| Nc1nc2cc(-c3ccc(C(F)(F)F)c(OCCC(F)C(O)c4ccc(F)cc4)c3F)ccn2n1 (single isomer, unassigned) [Example 113, 4-(3-(2-amino-[1,2,4]triazolo[1,5-a]pyridin-7-yl)-2-fluoro-6-(trifluoromethyl)phenoxy)-2-fluoro-1-(4-fluorophenyl)butan-1-ol] | 220 |
| Cc1ccc(-c2ccn3nc(N)nc3c2)c(F)c1OCCC(F)C(O)c1ccc(F)cc1 (single isomer, unassigned) [Example 107, 4-(3-(2-amino-[1,2,4]triazolo[1,5-a]pyridin-7-yl)-2-fluoro-6-methylphenoxy)-2-fluoro-1-(4-fluorophenyl)butan-1-ol] | 1.2 |
| CC(O)(c1ccc(F)cc1)C(F)(F)CCOc1ccc(Cl)c(-c2ccn3nc(N)nc3c2)n1 (single isomer, unassigned) [Example 79, 5-((6-(2-amino-[1,2,4]triazolo[1,5-a]pyridin-7-yl)-5-chloropyridin-2-yl)oxy)-3,3-difluoro-2-(4-fluorophenyl)pentan-2-ol] | 160 |
| CC(CC(F)(F)C(C)(O)c1ccc(F)cc1)Oc1c(F)ccc(-c2ccn3nc(N)nc3c2)c1F (single isomer, unassigned) [Example 128, 5-(3-(2-amino-[1,2,4]triazolo[1,5-a]pyridin-7-yl)-2,6-difluorophenoxy)-3,3-difluoro-2-(4-fluorophenyl)hexan-2-ol] | 170 |
| CC(O)(c1ccc(Cl)cc1)C(F)(F)CCOc1c(Cl)ccc(-c2ccn3nc(N)nc3c2)c1F (single isomer, unassigned) [Example 43, 5-(3-(2-amino-[1,2,4]triazolo[1,5-a]pyridin-7-yl)-6-chloro-2-fluorophenoxy)-2-(4-chlorophenyl)-3,3-difluoropentan-2-ol] | 330 |
| CC(O)(c1ccc(F)cc1)C(F)CCOc1c(F)ccc(-c2ccn3nc(N)nc3c2)c1F (single isomer, unassigned) [Example 95, 5-(3-(2-amino-[1,2,4]triazolo[1,5-a]pyridin-7-yl)-2,6-difluorophenoxy)-3-fluoro-2-(4-fluorophenyl)pentan-2-ol] | 4 |
| CC(O)(c1ccccc1F)C(F)(F)CCOc1c(F)ccc(-c2ccn3nc(N)nc3c2)c1F (single isomer, unassigned) [Example 125, 5-(3-(2-amino-[1,2,4]triazolo[1,5-a]pyridin-7-yl)-2,6-difluorophenoxy)-3,3-difluoro-2-(2-fluorophenyl)pentan-2-ol] | 0.6 |
| CC(O)(c1ccccc1)C(F)(F)CCOc1c(F)ccc(-c2ccn3nc(N)nc3c2)c1F (single isomer, unassigned) [Example 39, 5-(3-(2-amino-[1,2,4]triazolo[1,5-a]pyridin-7-yl)-2,6-difluorophenoxy)-3,3-difluoro-2-phenylpentan-2-ol] | 130 |
| CC(O)(c1ccc(F)cc1)C(F)(F)CCOc1ccc(F)c(-c2ccn3nc(N)nc3c2)n1 (single isomer, unassigned) [Example 77, 5-((6-(2-amino-[1,2,4]triazolo[1,5-a]pyridin-7-yl)-5-fluoropyridin-2-yl)oxy)-3,3-difluoro-2-(4-fluorophenyl)pentan-2-ol] | 430 |
| COc1ccc(-c2ccn3nc(N)nc3c2)c(F)c1OCCC(F)(F)C(C)(O)c1ccc(F)cc1 (single isomer, unassigned) [Example 19, 5-(3-(2-amino-[1,2,4]triazolo[1,5-a]pyridin-7-yl)-2-fluoro-6-methoxyphenoxy)-3,3-difluoro-2-(4-fluorophenyl)pentan-2-ol] | 0.4 |
| Nc1nc2cc(-c3cccc(OCCC(F)(F)C(O)c4ccc(F)cc4)c3F)ccn2n1 (single isomer, unassigned) [Example 72, 4-(3-(2-amino-[1,2,4]triazolo[1,5-a]pyridin-7-yl)-2-fluorophenoxy)-2,2-difluoro-1-(4-fluorophenyl)butan-1-ol] | 1 |
| CC(O)(c1ccc(F)cc1)C(F)(F)CCOc1ccc(F)c(-c2ccn3nc(N)nc3c2)c1F (single isomer, unassigned) [Example 9, 5-(3-(2-amino-[1,2,4]triazolo[1,5-a]pyridin-7-yl)-2,4-difluorophenoxy)-3,3-difluoro-2-(4-fluorophenyl)pentan-2-ol] | 0.1 |
| CC(O)(c1ccccc1)C(F)(F)CCOc1c(Cl)ccc(-c2ccn3nc(N)nc3c2)c1F (single isomer, unassigned) [Example 42, 5-(3-(2-amino-[1,2,4]triazolo[1,5-a]pyridin-7-yl)-6-chloro-2-fluorophenoxy)-3,3-difluoro-2-phenylpentan-2-ol] | 17 |
| CC(O)(c1ccccc1)C(F)(F)CCOc1c(F)ccc(-c2ccn3nc(N)nc3c2F)c1F (single isomer, unassigned) [Example 37, 5-(3-(2-amino-8-fluoro-[1,2,4]triazolo[1,5-a]pyridin-7-yl)-2,6-difluorophenoxy)-3,3-difluoro-2-phenylpentan-2-ol] | 110 |
| Cc1ccc(-c2ccn3nc(N)nc3c2)c(F)c1OCCC(F)C(O)c1ccc(F)cc1 (single isomer, unassigned) [Example 106, 4-(3-(2-amino-[1,2,4]triazolo[1,5-a]pyridin-7-yl)-2-fluoro-6-methylphenoxy)-2-fluoro-1-(4-fluorophenyl)butan-1-ol] | 3 |
| CC(O)(c1ccc(Cl)cc1)C(F)(F)CCOc1cccc(-c2ccn3nc(N)nc3c2)c1F (single isomer, unassigned) [Example 47, 5-(3-(2-amino-[1,2,4]triazolo[1,5-a]pyridin-7-yl)-2-fluorophenoxy)-2-(4-chlorophenyl)-3,3-difluoropentan-2-ol] | 23 |
| [2H]C([2H])(CC(F)(F)C(C)(O)c1ccc(F)cc1)Oc1cccc(-c2ccn3nc(N)nc3c2)c1F (single isomer, unassigned) [Example 12, 5-(3-(2-amino-[1,2,4]triazolo[1,5-a]pyridin-7-yl)-2-fluorophenoxy)-3,3-difluoro-2-(4-fluorophenyl)pentan-5,5-d2-2-ol] | 1 |
| Nc1nc2cc(-c3ccc(C(F)(F)F)c(OCCC(F)C(O)c4ccc(F)cc4)c3F)ccn2n1 (single isomer, unassigned) [Example 111, 4-(3-(2-amino-[1,2,4]triazolo[1,5-a]pyridin-7-yl)-2-fluoro-6-(trifluoromethyl)phenoxy)-2-fluoro-1-(4-fluorophenyl)butan-1-ol] | 29 |
| Nc1nc2cc(-c3ccc(Cl)c(OCCC(F)(F)C(O)c4ccc(F)cc4)c3F)ccn2n1 (single isomer, unassigned) [Example 59, 4-(3-(2-amino-[1,2,4]triazolo[1,5-a]pyridin-7-yl)-6-chloro-2-fluorophenoxy)-2,2-difluoro-1-(4-fluorophenyl)butan-1-ol] | 2 |
